Results as given in the supplement of paper PMC3974653.
Where a name gives a salt, the structure may show the parent alone.

Test system: MTT (mouse pheochromocytoma)
Assay: IC50 of cell viability (ATP content)
Conditions: (24 or 48 h)
Procedure, shortened: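 Cells of the MTT mouse pheochromocytoma line, 5 µl per well at 200,000 cells/ml, were grown overnight at 37°C, 5% CO2 in white 1536-well plates with DMEM, 5% FBS and 1% horse serum. Pintool transfer then delivered 23 nl of library compound in DMSO, giving 8 final concentrations from 0.5 nM to 46 µM, for an exposure of 24 or 48 hrs. Luminescence from CellTiter-Glo was read after 15 minutes and referenced to positive-control wells (100%) and DMSO wells (0%). IC50 was calculated with a four-parameter logistic fit.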

Structure (SMILES)	IC50 of cell viability
Clc1ccc(C(c2ccccc2Cl)C(Cl)Cl)cc1 (stereo unspecified) [Mitotane]	> 46 µM
OCC(O)[C@H]1O[C@@H]2O[C@H](C(Cl)(Cl)Cl)O[C@@H]2[C@H]1O (stereo partly specified) [CHLORALOSUM]	> 46 µM
CC(=O)O[C@@H](C)C(=O)OCC[N+](C)(C)C.CC(=O)O[C@@H](C)C(=O)OCC[N+](C)(C)C.O=S(=O)([O-])c1cccc2c(S(=O)(=O)[O-])cccc12 [Aclatonium Napadisilate]	> 46 µM
O=C(O)/C=C/C(=O)O [MALEIC ACID]	> 46 µM
N[C@@H](Cc1ccc(O)c(O)c1)C(=O)O [L-3,4-DIHYDROXYPHENYL-ALANINE]	> 46 µM
O=C(NC[C@@H](O)CO)c1c(I)c(C(=O)NC[C@@H](O)CO)c(I)c(N(CCO)C(=O)CO)c1I [Ioversol]	> 46 µM
CCO[P](=S)(OCC)OC1=CC=C2\C(=C(Cl)/C(=O)OC2=C1)C [COUMOPHOS]	> 46 µM
COC(F)(F)C(Cl)Cl [METHOXYFLURANE]	> 46 µM
O=C(c1cc2ccccc2o1)N1CCN(Cc2ccccc2)CC1 [Befuralina]	> 46 µM
COC(=O)N[C@H](C(=O)N[C@@H](Cc1ccccc1)[C@@H](O)CN(Cc1ccc(-c2ccccn2)cc1)NC(=O)[C@@H](NC(=O)OC)C(C)(C)C)C(C)(C)C [Atazanavir]	> 46 µM
OCCN(CCO)c1nc(N2CCCCC2)c2nc(N(CCO)CCO)nc(N3CCCCC3)c2n1 [DIPYRIDAMOLE]	> 46 µM
OCC(O)CS (stereo unspecified) [THIOGLYCEROL]	> 46 µM
C[N+]1(C)[C@@H]2CC(OC(=O)C(O)(c3cccs3)c3cccs3)C[C@H]1[C@@H]1O[C@@H]12 (stereo partly specified) [TIOTROPIUM BROMIDE MONOHYDRATE]	> 46 µM
N=C(N)c1ccc(OCCCOc2ccc(C(=N)N)cc2Br)c(Br)c1 [Dibromopropamidine Dihydrochloride]	> 46 µM
Cc1oncc1C(=O)Nc1ccc(C(F)(F)F)cc1 [Leflunomide]	> 46 µM
Clc1ccc(CO[C@@H](Cn2ccnc2)c2ccc(Cl)cc2Cl)c(Cl)c1 [Miconazole]	> 46 µM
CCC(=O)O[C@@](Cc1ccccc1)(c1ccccc1)[C@H](C)CN(C)C	> 46 µM
CCC(C)C1O[C@]2(C=CC1C)CC1CC(C/C=C(\C)[C@H](OC3CC(OC)C(O[C@H]4CC(OC)[C@@H](O)C(C)O4)C(C)O3)[C@@H](C)/C=C/C=C3\COC4C(O)C(C)=C[C@H](C(=O)O1)[C@@]34O)O2 (stereo partly specified) [AVERMECTIN B1]	> 46 µM
c1ccc2c(c1)Sc1ccccc1N2CCN1CCCC1 [PARATHIAZINUM]	> 46 µM
CC[C@H](C)[C@H](NC(=O)[C@H](CO)NC(=O)[C@H](CC(N)=O)NC(=O)[C@H](CC(C)C)NC(=O)[C@H](Cc1ccc(O)cc1)NC(=O)[C@H](CCCCN)NC(=O)[C@H](CCCCN)NC(=O)[C@@H](NC(=O)[C@H](C)NC(=O)[C@H](CCSC)NC(=O)[C@H](CCC(N)=O)NC(=O)[C@H](CCCCN)NC(=O)[C@H](CCCNC(=N)N)NC(=O)[C@H](CC(C)C)NC(=O)[C@H](CCCNC(=N)N)NC(=O)[C@@H](NC(=O)[C@H](Cc1ccc(O)cc1)NC(=O)[C@H](CC(N)=O)NC(=O)[C@H](CC(=O)O)NC(=O)[C@@H](NC(=O)[C@H](Cc1ccccc1)NC(=O)[C@@H](NC(=O)[C@H](C)NC(=O)[C@H](CC(=O)O)NC(=O)[C@H](CO)NC(=O)[C@@H](N)Cc1c[nH]cn1)C(C)C)[C@@H](C)O)[C@@H](C)O)C(C)C)C(=O)N[C@@H](CC(C)C)C(=O)N[C@@H](CC(N)=O)C(=O)O [AVIPTADIL]	> 46 µM
C[C@H](N)[C@@H](O)c1ccccc1 [Phenylpropanolamine hydrochloride]	> 46 µM
